Earlier results as cited in patent US7915270B2, “Oxazole ketones as modulators of fatty acid amide hydrolase” (The Scripps Research Institute, priority 2006, dated 2011).

Tests used:
spasticity = conditions: Baker 2001; cited from earlier work
thermal nociception = conditions: rat; Kathuria 2003; cited from earlier work
[1] = rat; Kathuria 2003; cited from earlier work
anxiety = conditions: rats; Kathuria 2003; cited from earlier work

| Structure (SMILES) | spasticity in CREAE mice (spasticity) | analgesic efficacy in the hot plate test (thermal nociception) | analgesic efficacy in the formalin test [1] | efficacy in the zero plus maze model of anxiety (anxiety) |
| --- | --- | --- | --- | --- |
| CCCCCCCCCCCCCCCCS(=O)(=O)F [AM374] | significantly reduce spasticity | – | – | – |
| NC(=O)c1cccc(-c2cccc(OC(=O)NC3CCCCC3)c2)c1 [URB-597] | – | analgesic efficacy | analgesic efficacy | efficacy |
